Assay results as given in patent US20130237582A1, “PHARMACEUTICAL COMBINATION OF PACLITAXEL AND A CDK INHIBITOR” (Piramal Enterprises Limited, priority 2010, published 2013).

Assays:
PARP = test: Western blot for PARP cleavage in MDA-MB-468; assay type: cell-based, human; conditions: 1.5 μM and 5 μM, 24 h
Experimental: Correlation of PARP activity and cell cycle proteins cyclin D1, total Rb and pRb 780 were studied in two TNBC cell lines viz. MDA-MB-468 and MDA-MB-231. MDA-MB-231 and MDA-MB-468 cells were seeded in RPMI 1460 medium with 10% FCS in […] tissue culture flask and incubated for 24 h. These cells were treated at 1.5 μM and 5 μM Compound A for 24 h. The cells were harvested (trypsinised) and lysed using lysis buffer. Western blotting was carried out (Molecular Cancer […], 2007, 6, 918-925) using specific antibody to PAR, PARP, cyclin D1, CDK4 and pRb Ser 780.

MCF-7 = test: Multicellular tumor spheroid (MCTS, 3D) formation; assay type: cell-based, human; conditions: MCF-7 MCTS
Experimental: The assay was carried out according to the method disclosed in Methods in Molecular Medicine, 2007, 140, 141-151.
The multicellular tumor spheroid (MCTS) model is one of the best-described 3D in vitro tumor model systems, which depicts many of the characteristics of tumor tissue and allows reproducible experiments, offering an excellent in vitro screening system. MCTS were propagated using the hanging drop method. Briefly, the cell monolayer was detached using trypsin-EDTA. Cell count was adjusted and 20 μL hanging droplets containing 1,000 cells/drop, were made in bacterial grade petridishes. These hanging drops were incubated for 24 h at 37° C. in a humidified atmosphere of 5% CO2. The MCTS thus generated were cultured in the presence or absence of varying concentrations (0.3 μM to 30 μM) of Compound A for 72 h.

U251 pGL3 = test: Control luciferase reporter cell line (U251 pGL3); assay type: cell-based; conditions: normoxia
Source text: 1) U251 HRE: The genetically engineered cells U251 HRE which stably express a recombinant vector in which the Luciferase reporter gene is under control of three copies of a canonical HRE. 2) U251 pGL3: A control cell line contains the firefly Luciferase reporter gene under control of the constitutively active SV40 promoter and enhancer that helps to exclude compounds that inhibit Luciferase expression in a nonspecific and/or HIF-1-independent fashion. These cells expressed high basal levels of Luciferase in normoxic conditions and slightly lower levels in hypoxic conditions.
U251 HRE cells were inoculated into 96 well white flat-bottomed plates at 10000-15000 cells/well in a volume of 180 μL and incubated for 24 h at 37° C., 5% CO2, and ambient O2. Compound A was tested at various concentrations viz. […] After 20 h incubation, the plates were removed and incubated at room temperature, 5% CO2, and ambient O2 for 1.5 h. 40 μL of Bright Glo Luciferase reagent (Promega™, USA) was added and after 3 min, luminescence was measured using a Polar Star Plate Reader (USA) in luminescence mode. Appropriate control cells (U251 pGL3) were treated identically, except that they were treated at 37° C., 5% CO2 and ambient O2. Compound toxicity was assayed using the MTS assay.

MDA-MB-361 = test: Cytotoxicity assay using propidium iodide (PI); assay type: cell-based; conditions: Homo sapiens
Experimental: (§1) The propidium iodide fluorescence assay (PI) was carried out according to the procedure mentioned in Anticancer Drugs, 1995, 6, 522-32. The assay was developed to characterize the in vitro growth of human tumor cell lines as well as to test the cytotoxic activity of the compounds. Propidium iodide (PI) was used as a dye, which penetrates only damaged cellular membranes. Intercalation complexes are formed by PI with double-stranded DNA, which effect an amplification of the fluorescence. After freezing the cells at −20° C. for 24 h, PI had access to total DNA leading to total cell population counts. Background readings were obtained from cell-free wells containing media and propidium iodide. The human breast cancer cell lines (i.e. […] Control wells were treated with vehicle (DMSO). At the end of the incubation periods, the plates were assayed using PI cytotoxicity assay protocol. Percent cytoxicity was calculated at various drug concentrations and from the graph plotted the IC50 values were determined.

T47-D = test: Cytotoxicity assay using propidium iodide (PI); assay type: cell-based; conditions: Homo sapiens, T47D
Experimental: as §1

HBL-100 = test: Cytotoxicity assay using propidium iodide (PI); assay type: cell-based; conditions: Homo sapiens
Experimental: as §1

MDA-MB-435-S = test: Cytotoxicity assay using propidium iodide (PI); assay type: cell-based; conditions: Homo sapiens
Experimental: as §1

ZR-75-1 = test: Cytotoxicity assay using propidium iodide (PI); assay type: cell-based; conditions: Homo sapiens
Experimental: as §1

BT-549 = test: Cytotoxicity assay using propidium iodide (PI); assay type: cell-based; conditions: Homo sapiens, 48 h treatment
Experimental: as §1

CN1CC[C@@H](c2c(O)cc(O)c3c(=O)cc(-c4ccccc4Cl)oc23)[C@@H]1CO.Cl [Compound A, (+)-trans-2-(2-Chloro-phenyl)-5,7-dihydroxy-8-(2-hydroxymethyl-1-methyl-pyrrolidin-3-yl)-chromen-4-one hydrochloride]
PARP cleavage (PARP): PARP cleavage was prominent
concentration from which spheroid formation was arrested (MCF-7; 0.3 μM to 30 μM, 72 h): ≥ 3 µM
size of MCTS formed (MCF-7; 1 μM): smaller as compared to control
luciferase expression in control cell line (U251 pGL3): did not inhibit the luciferase expression
IC50 (MDA-MB-361): 750 nM
IC50 (T47-D): 500 nM
IC50 (HBL-100): 510 nM
IC50 (MDA-MB-435-S): 300 nM
IC50 (ZR-75-1): 900 nM
IC50 (BT-549): 800 nM
